The text below walks through data of US9090601B2, “Thiazole derivatives” (Millennium Pharmaceuticals, Inc., priority 2009, dated 2015).

What is called IC50 is the midpoint of a concentration-inhibition curve.

T1 sequence (P42336 whole entry): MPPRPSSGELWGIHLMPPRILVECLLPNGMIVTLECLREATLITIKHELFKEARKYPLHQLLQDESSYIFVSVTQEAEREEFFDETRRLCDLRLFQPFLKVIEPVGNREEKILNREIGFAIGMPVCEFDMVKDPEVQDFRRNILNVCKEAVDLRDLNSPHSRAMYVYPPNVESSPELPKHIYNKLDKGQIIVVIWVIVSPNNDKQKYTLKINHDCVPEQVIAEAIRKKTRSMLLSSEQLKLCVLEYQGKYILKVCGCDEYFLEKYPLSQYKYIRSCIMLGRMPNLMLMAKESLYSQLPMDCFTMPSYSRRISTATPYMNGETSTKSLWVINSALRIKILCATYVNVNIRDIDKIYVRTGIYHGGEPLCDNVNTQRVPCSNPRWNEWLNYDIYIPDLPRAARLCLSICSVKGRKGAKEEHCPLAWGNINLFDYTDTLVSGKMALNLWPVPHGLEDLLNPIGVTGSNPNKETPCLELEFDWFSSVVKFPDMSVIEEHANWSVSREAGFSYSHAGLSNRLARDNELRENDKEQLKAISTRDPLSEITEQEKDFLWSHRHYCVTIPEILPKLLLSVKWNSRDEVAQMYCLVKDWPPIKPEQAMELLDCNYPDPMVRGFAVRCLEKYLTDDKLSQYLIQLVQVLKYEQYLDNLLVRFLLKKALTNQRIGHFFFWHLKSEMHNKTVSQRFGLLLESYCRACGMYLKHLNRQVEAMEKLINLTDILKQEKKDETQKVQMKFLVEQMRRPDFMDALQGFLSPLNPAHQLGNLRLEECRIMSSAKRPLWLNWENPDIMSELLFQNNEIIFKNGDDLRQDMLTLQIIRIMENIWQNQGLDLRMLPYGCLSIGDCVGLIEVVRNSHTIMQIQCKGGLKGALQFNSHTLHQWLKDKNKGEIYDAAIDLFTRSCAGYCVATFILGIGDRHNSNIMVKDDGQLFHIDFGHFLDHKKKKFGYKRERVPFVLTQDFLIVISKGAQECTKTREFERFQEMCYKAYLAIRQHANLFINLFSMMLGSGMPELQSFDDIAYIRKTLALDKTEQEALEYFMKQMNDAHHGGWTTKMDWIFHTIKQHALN
T1 sequence (P27986 whole entry partner): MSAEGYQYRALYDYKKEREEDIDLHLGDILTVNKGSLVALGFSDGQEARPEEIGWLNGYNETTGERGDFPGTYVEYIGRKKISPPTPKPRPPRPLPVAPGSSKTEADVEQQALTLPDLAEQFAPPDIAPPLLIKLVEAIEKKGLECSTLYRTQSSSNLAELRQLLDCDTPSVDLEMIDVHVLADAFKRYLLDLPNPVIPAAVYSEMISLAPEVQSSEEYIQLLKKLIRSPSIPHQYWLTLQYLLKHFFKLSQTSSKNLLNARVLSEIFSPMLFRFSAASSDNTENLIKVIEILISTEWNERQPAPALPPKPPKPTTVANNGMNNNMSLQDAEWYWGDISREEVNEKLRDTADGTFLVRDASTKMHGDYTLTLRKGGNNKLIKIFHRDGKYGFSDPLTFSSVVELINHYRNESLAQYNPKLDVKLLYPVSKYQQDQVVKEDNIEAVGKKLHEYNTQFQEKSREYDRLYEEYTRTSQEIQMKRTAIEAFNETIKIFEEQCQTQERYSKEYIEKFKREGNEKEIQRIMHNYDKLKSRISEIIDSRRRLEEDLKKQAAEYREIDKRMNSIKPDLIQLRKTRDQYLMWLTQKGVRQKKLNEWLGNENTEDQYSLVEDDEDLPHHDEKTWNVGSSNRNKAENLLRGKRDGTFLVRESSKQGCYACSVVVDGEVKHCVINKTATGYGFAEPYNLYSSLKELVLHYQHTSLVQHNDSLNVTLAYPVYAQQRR
T2 sequence (P42345 1360-2549 limits assumed): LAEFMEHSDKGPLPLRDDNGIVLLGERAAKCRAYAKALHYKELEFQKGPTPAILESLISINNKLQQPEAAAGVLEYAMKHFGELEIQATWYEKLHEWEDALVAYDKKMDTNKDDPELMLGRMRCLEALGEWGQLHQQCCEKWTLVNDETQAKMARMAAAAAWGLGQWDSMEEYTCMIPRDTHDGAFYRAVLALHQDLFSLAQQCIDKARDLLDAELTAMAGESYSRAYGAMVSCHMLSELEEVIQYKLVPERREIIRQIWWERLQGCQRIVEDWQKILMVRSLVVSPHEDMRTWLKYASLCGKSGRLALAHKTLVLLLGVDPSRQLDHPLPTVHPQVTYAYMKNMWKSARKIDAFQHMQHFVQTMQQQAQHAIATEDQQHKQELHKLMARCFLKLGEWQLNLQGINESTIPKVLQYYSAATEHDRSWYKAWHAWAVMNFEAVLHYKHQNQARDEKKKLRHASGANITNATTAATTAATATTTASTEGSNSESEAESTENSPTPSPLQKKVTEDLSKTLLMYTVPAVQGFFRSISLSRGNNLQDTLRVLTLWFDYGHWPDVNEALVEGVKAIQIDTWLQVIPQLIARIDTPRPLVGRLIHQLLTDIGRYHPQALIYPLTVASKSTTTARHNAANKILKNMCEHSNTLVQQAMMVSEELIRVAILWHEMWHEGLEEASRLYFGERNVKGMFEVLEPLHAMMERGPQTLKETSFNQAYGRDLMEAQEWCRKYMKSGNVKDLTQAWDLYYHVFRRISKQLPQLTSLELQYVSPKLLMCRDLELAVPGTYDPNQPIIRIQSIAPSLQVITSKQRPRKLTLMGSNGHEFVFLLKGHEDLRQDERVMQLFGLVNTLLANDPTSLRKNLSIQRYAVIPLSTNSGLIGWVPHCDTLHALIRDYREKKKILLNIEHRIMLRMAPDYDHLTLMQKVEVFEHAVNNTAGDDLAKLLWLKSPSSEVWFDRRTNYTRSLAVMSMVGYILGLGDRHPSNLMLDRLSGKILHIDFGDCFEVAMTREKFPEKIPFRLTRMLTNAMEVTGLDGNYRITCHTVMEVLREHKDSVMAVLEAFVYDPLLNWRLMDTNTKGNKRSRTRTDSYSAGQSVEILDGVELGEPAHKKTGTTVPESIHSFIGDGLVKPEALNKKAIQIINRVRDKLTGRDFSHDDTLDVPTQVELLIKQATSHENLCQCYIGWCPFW

One test concerns the target T1, hPI3Kα (p110alpha catalytic subunit and human p85alpha regulatory subunit complex) (Homo sapiens, UniProt P42336).
T1 construct: made in house; host or cells: Sf21 insect cells (baculovirus, Bac-to-Bac)
The test can be described thus: Human PI3Kα enzyme assay (Phospholipid FlashPlate, γ-[33P] ATP). As to conditions: PI3Kα enzyme activity, compound at 1.0 μm, 500 nM ATP. The format is biochemical. How it is done:
hPIK3CA; p110alpha catalytic subunit (GenBank ACCESSION# NM_006218) and hPIK3R1; p85alpha regulatory subunit (GenBank ACCESSION# NM_181523) are cloned from human cDNA library (Clonetec).
Human p110alpha catalytic subunit gene and human p85alpha regulatory subunit gene are respectively inserted into pFASTBacHT (Invitrogen), and each gene was introduced into a baculovirus vector using a Bac-to-Bac system (Invitrogen). Both viruses are injected to insect cultured cells Sf21 to allow coexpression of proteins. p110alpha catalytic subunit and human p85alpha regulatory subunit complex (hPI3Kα) are purified from the cell extract using a Ni chelate column.
L-alpha-Phosphatidyl-D-myo-inositol 4,5-Diphosphate (diC16) [PI(4,5)P2, Wako Pure Chemical Industries, Ltd.] is suspended in Phospholipid FlashPlate Coating Buffer (PerkinElmer) and applied onto Phospholipid FlashPlate PLUS. PI3K reaction buffer (50 mM Tris-HCl, pH 7.4, 5 mM MgCl2, 1 mM DTT, 0.005% BSA) containing hPI3Kα, γ-[^33P] ATP (PerkinElmer) and cold 500 nM ATP is added to the wells on this plate and the mixture is reacted at room temperature for 1 hr. 50 mM EDTA solution is added to quench the reaction, and the wells are washed with PBS. The radioactivity remaining in the well is measured as enzyme activity by TopCount (PerkinElmer).
With `Cc1nn2ccc(OCCN3CCCCC3)cc2c1-c1nc(-c2ccccc2)c(-c2nnc[nH]2)s1` [Example 32-B, 2-methyl-3-[4-phenyl-5-(4H-1,2,4-triazol-3-yl)-1,3-thiazol-2-yl]-5-(2-piperidin-1-ylethoxy)pyrazolo[1,5-a]pyridine di-p-toluenesulfonate], the “Inhibitory rate at 1.0 μm (%)” value is reported as 100%. Consider `Cc1nn2ccsc2c1-c1nc(-c2ccccc2)c(-c2nnc[nH]2)s1` [Example 35-B, 6-methyl-7-[4-phenyl-5-(4H-1,2,4-triazol-3-yl)-1,3-thiazol-2-yl]pyrazolo[5,1-b][1,3]thiazole acetate], for which the “Inhibitory rate at 1.0 μm (%)” value was 101%. `C=CCOc1nc(-c2c(C)nn3ccccc23)sc1-c1nnc[nH]1` [Example 27-B, 2-methyl-3-[4-(prop-2-en-1-yloxy)-5-(4H-1,2,4-triazol-3-yl)-1,3-thiazol-2-yl]pyrazolo[1,5-a]pyridine]: the “Inhibitory rate at 1.0 μm (%)” value is 100%.

Another test addresses T2, human mTOR (Homo sapiens, UniProt P42345).
T2 construct: purchased Invitrogen
As to the kind of experiment: Human mTOR enzyme assay (Z'-lyte peptide FRET). As to conditions: mTOR enzyme activity, compound at 1.0 μm, 10 μM ATP. The test is classed as biochemical. How it is done: mTOR reaction buffer (50 mM HEPES, pH 7.5, 5 mM MgCl2, 5 mM MnCl2, 1 mM EGTA, 1 mM DTT, 0.01% BRIJ-35, 0.01% NaN3) containing human mTOR (Invitrogen), 10 μM ATP and 2 μM Z′-lyte 11Ser/Thr peptide (Invitrogen) is added to the well and the mixture is reacted at room temperature for 1 hr.
Development Buffer containing Development Reagent B (for Z′-lyte peptide, Invitrogen) was added, and the mixture is reacted at room temperature for 30 min. The fluorescence at 520 nm and fluorescence at 445 nm are measured with excitation at 400 nm using SpectraMax M5e (Molecular Device). The ratio of the obtained 445 nm fluorescence value/520 nm fluorescence value is calculated, and changes in the fluorescence resonance energy transfer (FRET) of Z′-lyte peptide are detected as the enzyme activity.
Take `Cc1nn2ccc(OCCO)cc2c1-c1nc(-c2ccccc2)c(-c2nnc[nH]2)s1` [Example 33-B, 2-({2-methyl-3-[4-phenyl-5-(4H-1,2,4-triazol-3-yl)-1,3-thiazol-2-yl]pyrazolo[1,5-a]pyridin-5-yl}oxy)ethanol]: the “Inhibitory rate at 1.0 μm (%)” value turned out to be 91%.

For another test, the target named is T3, PI3Kalpha (Homo sapiens, UniProt P42336).
T3 construct: His (N); host or cells: baculovirus expression system (insect cells)
T3 sequence (P42336 whole entry): as the sequence (P42336 whole entry) above
T3 sequence (P27986 whole entry partner): as the sequence (P27986 whole entry partner) above
As to the kind of experiment: PI3K alpha enzyme assay (HTRF). The test is classed as biochemical. As to conditions: PI3Kalpha 0.4875 nM, ATP 25 uM, di-C8 PI(4,5)P2 3.5 uM, 30 min room temperature; read-out: IC50 (inhibit PI3Kalpha). How it is done:
0.5 uL compounds in DMSO are added to wells of a 384 well microtitre plate (Corning 3575). At room temperature: 10 ul PI3K reaction buffer (50 mM Hepes, 5 mM DTT, 150 mM NaCl, 10 mM beta-glycerophosphate, 10 mM MgCl2, 0.25 mM sodium cholate and 0.001% CHAPS, pH 7.00) containing ATP (25 uM, Promega) is added followed immediately by 10 ul PI3K reaction buffer containing di-C8 PI(4,5)P2 (3.5 uM, CellSignals) and PI3Kalpha (0.4875 nM, Millennium Protein Sciences Group) and the mixture is incubated with shaking at room temperature for 30 minutes. Then 5 ul PI3K stop mix (50 mM Hepes, 5 mM DTT, 150 mM NaCl, 0.01% Tween-20, 15 mM EDTA and 25 nM biotin-PI(3,4,5)P3 (Echelon) is added to quench the reaction followed immediately by addition of 5 ul HTRF detection mix (50 mM Hepes, 5 mM DTT, 150 mM NaCl, 0.01% Tween-20, 40 mM KF, 10 nM GST:GRP-1 PH domain (Millennium Protein Sciences Group), 15 nM Streptavidin-XL (CisBio) and 0.375 nM anti-GST Eu++ antibody (CisBio) at pH 7.00). The plates are then incubated for 1 hour at room temperature with shaking and then read on a BMG PheraStar Plus reader.
For orientation: TR-FRET usually uses a lanthanide donor and a delayed reading to cut background.
On to `CCOc1nc(-c2ccnc(NC(=O)c3ccccn3)c2)sc1-c1nnc[nH]1` [Example 49-B, N-{4-[4-ethoxy-5-(4H-1,2,4-triazol-3-yl)-1,3-thiazol-2-yl]pyridin-2-yl}pyridine-2-carboxamide], for which the IC50 is greater than 1000 nM. Still for that read-out and setting: for `CC(=O)Nc1cc(-c2nc(-c3ccccc3Cl)c(-c3ncc[nH]3)s2)c(C)cn1` [Example 30-C] the value was greater than 1000 nM; for `COCCNC(=O)c1sc(-c2ccnc(NC(C)=O)c2)nc1-c1ccccc1Cl` [Example 64-C], greater than 1000 nM. Same read-out and setting: for `COc1ccc(-c2nc(-c3ccnc(NC(C)=O)c3)sc2-c2ncc[nH]2)cc1` [Example 62-C] the value was greater than 1000 nM. Still for that read-out and setting: for `CC(=O)Nc1cc(-c2nc(-c3c(C)cccc3C)c(-c3nnc[nH]3)s2)ccn1` [Example 56-C, N-{4-[4-(2,6-dimethylphenyl)-5-(4H-1,2,4-triazol-3-yl)-1,3-thiazol-2-yl]pyridin-2-yl}acetamide] the value was greater than 1000 nM; for `COc1ccc(-c2nc(-c3ccnc(NC(C)=O)c3)sc2-c2ncc[nH]2)cc1OC` [Example 16-C], greater than 1000 nM; for `CCOc1nc(-c2ccnc(NC(=O)c3sccc3C)c2)sc1-c1nnc[nH]1` [Example 52-B, N-{4-[4-ethoxy-5-(4H-1,2,4-triazol-3-yl)-1,3-thiazol-2-yl]pyridin-2-yl}-3-methylthiophene-2-carboxamide], greater than 1000 nM.

Take `CCOc1nc(-c2ccnc(NC(=O)c3ccccc3C)c2)sc1-c1nnc[nH]1` [Example 68-B, N-{4-[4-ethoxy-5-(4H-1,2,4-triazol-3-yl)-1,3-thiazol-2-yl]pyridin-2-yl}-2-methylbenzamide]: the half-maximal inhibitory concentration (IC50) was greater than 1000 nM.

Regarding `CCOc1nc(-c2ccnc(NC(=O)c3ccncc3)c2)sc1-c1nnc[nH]1` [Example 67-B, N-{4-[4-ethoxy-5-(4H-1,2,4-triazol-3-yl)-1,3-thiazol-2-yl]pyridin-2-yl}pyridine-4-carboxamide], the IC50 is greater than 1000 nM. Take `CC(=O)Nc1cc(-c2nc(-c3ccccc3Cl)c(C(=O)NC[C@@H](C)O)s2)ccn1` [Example 4-C]: the IC50 was greater than 1000 nM. On the same count and under the same terms, for `CC(=O)Nc1cc(-c2nc(-c3ccccc3Cl)c(C(=O)NCCO)s2)ccn1` [Example 48-C, 2-[2-(acetylamino)pyridin-4-yl]-4-(2-chlorophenyl)-N-(2-hydroxyethyl)-1,3-thiazole-5-carboxamide] the value was greater than 1000 nM; for `CCOc1nc(-c2ccnc(NC(=O)C(C)(C)C)c2)sc1-c1nnc[nH]1` [Example 66-B, N-{4-[4-ethoxy-5-(4H-1,2,4-triazol-3-yl)-1,3-thiazol-2-yl]pyridin-2-yl}-2,2-dimethylpropanamide], greater than 1000 nM; for `CC(=O)Nc1cc(-c2nc(-c3ccc(F)c(CO)c3)c(-c3ncc[nH]3)s2)ccn1` [Example 47-C], greater than 1000 nM. On the same count and under the same terms, for `Cc1nc2cccnn2c1-c1nc(-c2ccccc2)c(-c2nnc[nH]2)s1` [Example 41-B, 2-methyl-3-[4-phenyl-5-(4H-1,2,4-triazol-3-yl)-1,3-thiazol-2-yl]imidazo[1,2-b]pyridazine] the value was greater than 1000 nM; for `CC(=O)Nc1cc(-c2nc(Br)c(-c3ncc[nH]3)s2)ccn1` [Example 58-C], greater than 1000 nM; for `COc1cnc(NC(C)=O)cc1-c1nc(-c2ccc(Cl)cc2Cl)c(-c2ncc[nH]2)s1` [Example 18-C], greater than 1000 nM. On to `COc1cccc(OC)c1-c1nc(-c2c(C)nn3ccccc23)sc1-c1nc[nH]n1` [Example 102-B, 3-[4-(2,6-dimethoxyphenyl)-5-(1H-1,2,4-triazol-3-yl)-1,3-thiazol-2-yl]-2-methylpyrazolo[1,5-a]pyridine], for which the IC50 was greater than 1000 nM.

Take `CC(=O)Nc1cc(-c2nc(-c3ccncc3)c(-c3ncc[nH]3)s2)ccn1` [Example 27-C]: the concentration for half-maximal inhibition (IC50) is greater than 1000 nM.

For the compound `Cc1nn2c(c1-c1nc(C3CCCCC3)c(-c3nnc[nH]3)s1)CCCC2` [Example 19-B, 3-[4-cyclohexyl-5-(4H-1,2,4-triazol-3-yl)-1,3-thiazol-2-yl]-2-methyl-4,5,6,7-tetrahydropyrazolo[1,5-a]pyridine], the IC50 was greater than 1000 nM. Still for that read-out and setting: the figure for `CCOc1nc(-c2ccnc(NC(=O)c3c(F)cccc3F)c2)sc1-c1nnc[nH]1` [Example 71-B, N-{4-[4-ethoxy-5-(4H-1,2,4-triazol-3-yl)-1,3-thiazol-2-yl]pyridin-2-yl}-2,6-difluorobenzamide] is greater than 1000 nM.

In the case of `CC(=O)Nc1cc(-c2nc(-c3ccc(Oc4ccccc4)cc3)c(-c3ncc[nH]3)s2)ccn1` [Example 60-C], the IC50 was greater than 1000 nM.

Regarding `CC(=O)Nc1cc(-c2nc(-c3ccc(OC(C)C)cc3)c(-c3ncc[nH]3)s2)ccn1` [Example 46-C], the IC50 was greater than 1000 nM. The same measure, in the same setting: the figure for `CC(=O)Nc1cccc(-c2nc(-c3ccnc(NC(C)=O)c3)sc2-c2ncc[nH]2)c1` [Example 72-C] is greater than 1000 nM. As to `CCOc1nc(-c2ccnc(NC(=O)C3CCCCC3)c2)sc1-c1nnc[nH]1` [Example 50-B, N-{4-[4-ethoxy-5-(4H-1,2,4-triazol-3-yl)-1,3-thiazol-2-yl]pyridin-2-yl}cyclohexanecarboxamide], the concentration for half-maximal inhibition (IC50) was greater than 1000 nM. Take `CC(=O)Nc1cc(-c2nc(-c3ccc(-c4nnc(C)o4)cc3)c(-c3ncc[nH]3)s2)ccn1` [Example 8-C]: the 50% inhibitory concentration (IC50) was greater than 1000 nM.

As to `CC(=O)Nc1cc(-c2nc(-c3ccccc3)c(-c3ncc[nH]3)s2)c(C)cn1` [Example 36-C], the IC50 is greater than 1000 nM. On the same count and under the same terms, the figure for `CCOc1nc(-c2ccnc(NC(=O)c3ccccc3Cl)c2)sc1-c1nnc[nH]1` [Example 54-B, 2-chloro-N-{4-[4-ethoxy-5-(4H-1,2,4-triazol-3-yl)-1,3-thiazol-2-yl]pyridin-2-yl}benzamide] is greater than 1000 nM. Still for that read-out and setting: for `CC(=O)Nc1cc(-c2nc(-c3ccccc3Cl)c(-c3nnc[nH]3)s2)c(C)cn1` [Example 65-C] the value was greater than 1000 nM. `CC(=O)Nc1cc(-c2nc(-c3cccc(-n4cccn4)c3)c(-c3ncc[nH]3)s2)ccn1` [Example 14-C]: the concentration for half-maximal inhibition (IC50) is greater than 1000 nM.
